Literature values as cited in patent US20250304714A1, “Methods of Treating Metastatic Castration-Resistant Prostate Cancer with Bispecific Anti-PSMA x Anti-CD3 Antibodies Alone or in Combination with Anti-PD-1 Antibodies” (Regeneron Pharmaceuticals, Inc., priority 2022, published 2025).

Columns and labels:
[1] = intended dose ˜9±1 mCi per IV injection; cited from earlier work
[2] = multiple phase 1 to 3 studies, prostate cancer patients; cited from earlier work

## O=C(O)CC[C@H](NC(=O)N[C@@H](CCCCNC(=O)c1ccc(F)nc1)C(=O)O)C(=O)O [DCFPyL]
[1]
  Radiation dose from the PET/CT scan: about 7.4 mSv
[2]
  tolerability: well tolerated
